According to patent publication US20070117743A1, “New antitumoral compounds” (priority 2003, published 2007):
Like-named read-outs stand apart in the source and are kept apart here. Where a SMILES comes first, the peptide text is derived from it. Bridges are numbered along the chain shown (N, C = ends). [ ]: non-standard residue; d: D form. The star is where a group is joined. 2Nal = N[C@@H](Cc1ccc2ccccc2c1)C(=O)O; Hexanoyl(4S-Me) = CC[C@H](C)CCC(=O)*; d(aIle) = CC[C@H](C)[C@@H](N)C(=O)O; d(aThr) = C[C@@H](O)[C@@H](N)C(=O)O; Hexanoyl(5-Me) = CC(C)CCCC(=O)*; Orn = NCCC[C@H](N)C(=O)O; Dhb = C/C=C(\N)C(=O)O

What was measured:
Assay type in all cases: cell-based, human
HeLa-APL = assay: SRB colorimetric assay of cell growth and viability, HeLa-APL; details: 48 hours exposure; for CC50: read-out: LC50 HELA-APL
IGROV-1 = assay: SRB colorimetric assay of cell growth and viability, IGROV-1; details: 48 hours exposure
LoVo-Dox = assay: SRB colorimetric assay of cell growth and viability, LoVo-Dox; details: 48 hours exposure; for CC50: read-out: LC50 LOVO-DOX
Summary of the method: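 Cells in RPMI 1640 with 10% FBS were seeded at 5×10^3 per well and left 18 hours drug-free before compounds (10 to 10^−8 μg/mL in DMSO:EtOH:PBS 0.5:0.5:99) were added for 48 hours. TCA-fixed cells were stained with SRB and read at 490 nm; triplicate wells gave GI, TGI and LC.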

HeLa = assay: SRB colorimetric assay of cell growth and viability, HeLa; details: 48 hours exposure; for CC50: read-out: LC50 HELA
SK-BR-3 = assay: SRB colorimetric assay of cell growth and viability, SK-BR-3; details: 48 hours exposure
DU-145 = assay: SRB colorimetric assay of cell growth and viability, DU-145; details: 48 hours exposure
A-549 = assay: SRB colorimetric assay of cell growth and viability, A-549; details: 48 hours exposure; for GI50: read-out: GI50 A-549; for CC50: read-out: LC50 A-549
PANC-1 = assay: SRB colorimetric assay of cell growth and viability, PANC-1; details: 48 hours exposure; for CC50: read-out: LC50 PANC-1
HT-29 = assay: SRB colorimetric assay of cell growth and viability, HT-29; details: 48 hours exposure; for GI50: read-out: GI50 HT-29; for CC50: read-out: LC50 HT-29
K-562 = assay: SRB colorimetric assay of cell growth and viability, K-562; details: 48 hours exposure; for CC50: read-out: LC50 K-562
LoVo = assay: SRB colorimetric assay of cell growth and viability, LoVo; details: 48 hours exposure; for CC50: read-out: LC50 LOVO
IGROV-ET = assay: SRB colorimetric assay of cell growth and viability, IGROV-ET; details: 48 hours exposure; for CC50: read-out: LC50 IGROV-ET
SK-MEL-28 = assay: SRB colorimetric assay of cell growth and viability, SK-MEL-28; details: 48 hours exposure; for CC50: read-out: LC50 MEL-28

With C/C=C1\NC(=O)[C@H](Cc2ccc(Cl)cc2)NC(=O)[C@@H](C(C)C)NC(=O)[C@@H]([C@@H](C)CC)NC(=O)[C@H](NC(=O)[C@H](NC(=O)[C@H](CCCN)NC(=O)[C@H]2CCCN2C(=O)[C@H](NC(=O)[C@@H](NC(=O)[C@@H](NC(=O)[C@H](NC(=O)CCCC(C)C)C(C)C)[C@@H](C)O)C(C)C)C(C)C)[C@@H](C)CC)[C@@H](C)OC(=O)[C@H](C(C)C)NC1=O [Compound 83, [Phe(4-Cl)^3]-KF] the GI50 (HeLa-APL; HELA-APL) was 96.5 nM, the “TGI HELA-APL” value (HeLa-APL; HELA-APL) was 2.28E−07 Molar and the CC50 (HeLa-APL; HELA-APL) was 470 nM. For the same molecule, the GI50 (IGROV-1; IGROV) was 37.1 nM, the LC50 (concentration causing 50% net cell killing) (IGROV-1; IGROV) was 143 nM and the “TGI IGROV” value (IGROV-1; IGROV) was 7.69E−08 Molar. For the same molecule, the GI50 (LoVo-Dox; LOVO-DOX) was 38.2 nM, the “TGI LOVO-DOX” value (LoVo-Dox; LOVO-DOX) was 7.81E−08 Molar and the CC50 (LoVo-Dox; LOVO-DOX) was 1840 nM. The GI50 (HeLa; HELA) was 51.9 nM, the “TGI HELA” value (HeLa; HELA) was 2.00E−07 Molar and the CC50 (HeLa; HELA) was 475 nM. For the same molecule, the GI50 (SK-BR-3; SK-BR-3) was 34.2 nM, the LC50 (SK-BR-3; SK-BR-3) was 155 nM and the “TGI SK-BR-3” value (SK-BR-3; SK-BR-3) was 5.29E−08 Molar. The GI50 (DU-145; DU-145) was 83 nM, the LC50 (concentration causing 50% net cell kill) (DU-145; DU-145) was 461 nM and the “TGI DU-145” value (DU-145; DU-145) was 2.07E−07 Molar. For the same molecule, the “TGI A-549” value (A-549; A-549) was 3.62E−07 Molar, the GI50 (A-549; A-549) was 221 nM and the CC50 (A-549; A-549) was 593 nM. For the same molecule, the GI50 (PANC-1; PANC-1) was 658 nM, the “TGI PANC-1” value (PANC-1; PANC-1) was 1.07E−06 Molar and the CC50 (PANC-1; PANC-1) was 1750 nM. For the same molecule, the “TGI HT-29” value (HT-29; HT-29) was 8.24E−08 Molar, the GI50 (HT-29; HT-29) was 36.8 nM and the CC50 (HT-29; HT-29) was 172 nM. For the same molecule, the GI50 (K-562; K-562) was 333 nM, the “TGI K-562” value (K-562; K-562) was 5.08E−07 Molar and the CC50 (K-562; K-562) was 1130 nM. The GI50 (LoVo; LOVO) was 30.3 nM, the “TGI LOVO” value (LoVo; LOVO) was 6.27E−08 Molar and the CC50 (LoVo; LOVO) was 165 nM. The GI50 (IGROV-ET; IGROV-ET) was 65.2 nM, the “TGI IGROV-ET” value (IGROV-ET; IGROV-ET) was 1.21E−07 Molar and the CC50 (IGROV-ET; IGROV-ET) was 587 nM. For the same molecule, the GI50 (SK-MEL-28; MEL-28) was 206 nM, the “TGI MEL-28” value (SK-MEL-28; MEL-28) was 3.40E−07 Molar and the CC50 (SK-MEL-28; MEL-28) was 561 nM.

For C/C=C1\NC(=O)[C@H](Cc2ccc3ccccc3c2)NC(=O)[C@@H](C(C)C)NC(=O)[C@@H]([C@@H](C)CC)NC(=O)[C@H](NC(=O)[C@H](NC(=O)[C@H](CCCN)NC(=O)[C@H]2CCCN2C(=O)[C@H](NC(=O)[C@@H](NC(=O)[C@@H](NC(=O)[C@H](NC(=O)CCCC(C)C)C(C)C)[C@@H](C)O)C(C)C)C(C)C)[C@@H](C)CC)[C@@H](C)OC(=O)[C@H](C(C)C)NC1=O [Compound 85, [Nal^3]-KF] ({Hexanoyl(5-Me)}-[dV]TV[dV][dP][Orn][d(aIle)][d(aThr)][d(aIle)][dV][2Nal][Dhb]V; ester 8-C), the GI50 (HeLa-APL; HELA-APL) was 90.7 nM, the “TGI HELA-APL” value (HeLa-APL; HELA-APL) was 1.91E−07 Molar and the CC50 (HeLa-APL; HELA-APL) was 427 nM. For the same molecule, the GI50 (IGROV-1; IGROV) was 49.8 nM, the LC50 (concentration causing 50% net cell killing) (IGROV-1; IGROV) was 169 nM and the “TGI IGROV” value (IGROV-1; IGROV) was 9.81E−08 Molar. For the same molecule, the GI50 (LoVo-Dox; LOVO-DOX) was 37 nM, the “TGI LOVO-DOX” value (LoVo-Dox; LOVO-DOX) was 8.77E−08 Molar and the CC50 (LoVo-Dox; LOVO-DOX) was 847 nM. For the same molecule, the GI50 (HeLa; HELA) was 78.6 nM, the “TGI HELA” value (HeLa; HELA) was 1.94E−07 Molar and the CC50 (HeLa; HELA) was 462 nM. The GI50 (SK-BR-3; SK-BR-3) was 37.1 nM, the LC50 (SK-BR-3; SK-BR-3) was 170 nM and the “TGI SK-BR-3” value (SK-BR-3; SK-BR-3) was 5.80E−08 Molar. For the same molecule, the GI50 (DU-145; DU-145) was 111 nM, the LC50 (concentration causing 50% net cell kill) (DU-145; DU-145) was 488 nM and the “TGI DU-145” value (DU-145; DU-145) was 2.53E−07 Molar. For the same molecule, the “TGI A-549” value (A-549; A-549) was 3.39E−07 Molar, the GI50 (A-549; A-549) was 192 nM and the CC50 (A-549; A-549) was 599 nM. For the same molecule, the GI50 (PANC-1; PANC-1) was 694 nM, the “TGI PANC-1” value (PANC-1; PANC-1) was 1.04E−06 Molar and the CC50 (PANC-1; PANC-1) was 1570 nM. For the same molecule, the “TGI HT-29” value (HT-29; HT-29) was 1.16E−07 Molar, the GI50 (HT-29; HT-29) was 73.1 nM and the CC50 (HT-29; HT-29) was 278 nM. The GI50 (K-562; K-562) was 301 nM, the “TGI K-562” value (K-562; K-562) was 7.13E−07 Molar and the CC50 (K-562; K-562) was 1380 nM. For the same molecule, the GI50 (LoVo; LOVO) was 32.8 nM, the “TGI LOVO” value (LoVo; LOVO) was 8.16E−08 Molar and the CC50 (LoVo; LOVO) was 192 nM. For the same molecule, the GI50 (IGROV-ET; IGROV-ET) was 74.3 nM, the “TGI IGROV-ET” value (IGROV-ET; IGROV-ET) was 1.44E−07 Molar and the CC50 (IGROV-ET; IGROV-ET) was 425 nM. The GI50 (SK-MEL-28; MEL-28) was 230 nM, the “TGI MEL-28” value (SK-MEL-28; MEL-28) was 3.64E−07 Molar and the CC50 (SK-MEL-28; MEL-28) was 579 nM.

With C/C=C1\NC(=O)[C@H](Cc2ccc(OC)cc2)NC(=O)[C@@H](C(C)C)NC(=O)[C@@H]([C@@H](C)CC)NC(=O)[C@H](NC(=O)[C@H](NC(=O)[C@H](CCCN)NC(=O)[C@H]2CCCN2C(=O)[C@H](NC(=O)[C@@H](NC(=O)[C@@H](NC(=O)[C@H](NC(=O)CC[C@@H](C)CC)C(C)C)[C@@H](C)O)C(C)C)C(C)C)[C@@H](C)CC)[C@@H](C)OC(=O)[C@H](C(C)C)NC1=O [Compound 75, [Tyr(Me)^3, (4S)-MeHex^14]-KF] ({Hexanoyl(4S-Me)}-[dV]TV[dV][dP][Orn][d(aIle)][d(aThr)][d(aIle)][dV]Y(Me)[Dhb]V; ester 8-C) the GI50 (HeLa-APL; SRB) was 942 nM, the “TGI HELA-APL” value (HeLa-APL; SRB) was 1.78E−06 Molar and the CC50 (HeLa-APL; SRB) was 3380 nM. For the same molecule, the GI50 (IGROV-1; SRB) was 350 nM, the LC50 (concentration causing 50% net cell killing) (IGROV-1; SRB) was 2360 nM and the “TGI IGROV” value (IGROV-1; SRB) was 8.36E−07 Molar. For the same molecule, the GI50 (LoVo-Dox; SRB) was 137 nM, the “TGI LOVO-DOX” value (LoVo-Dox; SRB) was 2.27E−07 Molar and the CC50 (LoVo-Dox; SRB) was 379 nM. The GI50 (HeLa; SRB) was 509 nM, the “TGI HELA” value (HeLa; SRB) was 1.18E−06 Molar and the CC50 (HeLa; SRB) was 2500 nM. The GI50 (SK-BR-3; SRB) was 251 nM, the LC50 (SK-BR-3; SRB) was 2380 nM and the “TGI SK-BR-3” value (SK-BR-3; SRB) was 6.03E−07 Molar. For the same molecule, the GI50 (DU-145; SRB) was 749 nM, the LC50 (concentration causing 50% net cell kill) (DU-145; SRB) was 3160 nM and the “TGI DU-145” value (DU-145; SRB) was 1.54E−06 Molar. For the same molecule, the “TGI A-549” value (A-549; SRB) was 1.91E−06 Molar, the GI50 (A-549; SRB) was 1030 nM and the CC50 (A-549; SRB) was 3550 nM. For the same molecule, the GI50 (PANC-1; SRB) was 1700 nM, the “TGI PANC-1” value (PANC-1; SRB) was 3.08E−06 Molar and the CC50 (PANC-1; SRB) was 5590 nM. The “TGI HT-29” value (HT-29; SRB) was 2.80E−07 Molar, the GI50 (HT-29; SRB) was 158 nM and the CC50 (HT-29; SRB) was 495 nM. The GI50 (K-562; SRB) was 533 nM, the “TGI K-562” value (K-562; SRB) was 2.15E−06 Molar and the CC50 (K-562; SRB) was 6630 nM. For the same molecule, the GI50 (LoVo; SRB) was 126 nM, the “TGI LOVO” value (LoVo; SRB) was 2.22E−07 Molar and the CC50 (LoVo; SRB) was 391 nM. The GI50 (IGROV-ET; SRB) was 380 nM, the “TGI IGROV-ET” value (IGROV-ET; SRB) was 9.09E−07 Molar and the CC50 (IGROV-ET; SRB) was 2410 nM. For the same molecule, the GI50 (SK-MEL-28; SRB) was 975 nM, the “TGI MEL-28” value (SK-MEL-28; SRB) was 1.82E−06 Molar and the CC50 (SK-MEL-28; SRB) was 3400 nM.
